Assay: Inhibition of aminoglycoside N-6'-acetyltransferase Ii

CC(C)(COP(=O)(O)OP(=O)(O)OC[C@H]1O[C@@H](n2cnc3c(N)ncnc32)[C@H](O)[C@@H]1OP(=O)(O)O)[C@@H](O)C(=O)NCCC(=O)NCCSCCC(=O)NC[C@H]1O[C@H](O[C@H]2[C@H](O)[C@@H](O)[C@H](N)C[C@@H]2N)[C@H](N)[C@@H](O)[C@@H]1O
Ki: 43 nM

CC(C)(COP(=O)(O)OP(=O)(O)OC[C@H]1O[C@@H](n2cnc3c(N)ncnc32)[C@H](O)[C@@H]1OP(=O)(O)O)[C@@H](O)C(=O)NCCC(=O)NCCS(=O)(=O)CC(=O)NC[C@H]1O[C@H](O[C@H]2[C@H](O)[C@@H](O)[C@H](N)C[C@@H]2N)[C@H](N)[C@@H](O)[C@@H]1O
Ki: 270 nM

CC(C)(COP(=O)(O)OP(=O)(O)OC[C@H]1O[C@@H](n2cnc3c(N)ncnc32)[C@H](O)[C@@H]1OP(=O)(O)O)[C@@H](O)C(=O)NCCC(=O)NCCS(=O)(=O)CCC(=O)NC[C@H]1O[C@H](O[C@H]2[C@H](O)[C@@H](O)[C@H](N)C[C@@H]2N)[C@H](N)[C@@H](O)[C@@H]1O
Ki: 90 nM

CC(C)(COP(=O)(O)OP(=O)(O)OC[C@H]1O[C@@H](n2cnc3c(N)ncnc32)[C@H](O)[C@@H]1OP(=O)(O)O)[C@@H](O)C(=O)NCCC(=O)NCCSCCS(=O)(=O)NC[C@H]1O[C@H](O[C@H]2[C@H](O)[C@@H](O)[C@H](N)C[C@@H]2N)[C@H](N)[C@@H](O)[C@@H]1O
Ki: 1600 nM

CC(C)(COP(=O)(O)OP(=O)(O)OC[C@H]1O[C@@H](n2cnc3c(N)ncnc32)[C@H](O)[C@@H]1OP(=O)(O)O)[C@@H](O)C(=O)NCCC(=O)NCC[S+]([O-])CCC(=O)NC[C@H]1O[C@H](O[C@H]2[C@H](O)[C@@H](O)[C@H](N)C[C@@H]2N)[C@H](N)[C@@H](O)[C@@H]1O (some centres not stated)
Ki: 2000 nM

CC(C)(COP(=O)(O)OP(=O)(O)OC[C@H]1O[C@@H](n2cnc3c(N)ncnc32)[C@H](O)[C@@H]1OP(=O)(O)O)[C@@H](O)C(=O)NCCC(=O)NCC[S+]([O-])CC(=O)NC[C@H]1O[C@H](O[C@H]2[C@H](O)[C@@H](O)[C@H](N)C[C@@H]2N)[C@H](N)[C@@H](O)[C@@H]1O (some centres not stated)
Ki: 60 nM

CC(C)(COP(=O)(O)OP(=O)(O)OC[C@H]1O[C@@H](n2cnc3c(N)ncnc32)[C@H](O)[C@@H]1OP(=O)(O)O)[C@@H](O)C(=O)NCCC(=O)NCCSCC(=O)NC[C@H]1O[C@H](O[C@H]2[C@H](O)[C@@H](O)[C@H](N)C[C@@H]2N)[C@H](N)[C@@H](O)[C@@H]1O
Ki: 76 nM
